System: E. Coli (strain DH5α)
Test: Testing of antimicrobial RXPIX: bacterial viability by turbidity of LB Broth
Type: cell-based
Settings: 15 minutes fluid exchange at room temperature, then 2 ml LB Broth, 20 hours at 37° C., three replicates
Description: For each sample three replicate experiments were preformed. Briefly, a drop of the bacterium E. Coli (strain DH5α) was mixed with a small amount of a medium (Luria-Bertani Broth, or LB Broth) and allowed to exchange fluid with the floss device 10, which is named “RXPIX” for identification purposes in the following tests, for 15 minutes. After this period of time, 2 ml of LB Broth was added to each test tube and the bacteria were allowed to grow for 20 hours at 37° C. Observing the turbidity of the broth at this time assessed bacterial viability. Bacterial viability was also assessed analytically by measuring the absorbance of visible light (600 nm).
B. On Day 2, 1 micro liter of E. Coli cells was transferred to each 12×75 mm round bottom test tube for antimicrobial testing. In addition, 5 micro liters of fresh LB Broth were added to each test tube to allow for fluid exchange. […]
D. After 20 hours of incubation, bacterial viability was assessed. […]
E. To further characterize bacterial growth, the absorbance of 600 nm visible light was used to analytically measure turbidity. The broth from each sample was measured with a spectrophotometer equipped with a lamp emitting visible light.

## CCO [70% ethanol, ethanol]
  bacterial growth (turbidity of the LB Broth): no bacterial growth
Listed as 70% ethyl alcohol
  bacterial growth (turbidity of the LB Broth): not showing bacterial growth

Reference: patent US20140335474A1, “FLOSS DEVICE, A METHOD OF FORMING THE FLOSS DEVICE AND A METHOD OF USING THE FLOSS DEVICE” (priority 2008, published 2014)
